Converted amounts (≈) assume the structure as drawn.
How the values were obtained:
E. faecalis VRE 37 = experiment: MIC, broth microdilution, vancomycin-resistant E. faecalis VRE 37 (VanA); assay type: cell-based, Enterococcus faecalis; settings: for MIC: Enterococcus faecalis VRE 37 (vancomycin-resistant), read-out: MIC; for MIC-fold improvement vs. vancomycin: VRE 37, ratio of MIC of vancomycin and MIC of analogue
Summary of the method: (§1)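 Following CLSI antimicrobial susceptibility standards, organisms were tested by broth microdilution. Controls comprised ultrapure water plus broth left uninoculated. For a single condition, 10 μM vancomycin (final) accompanied the analog or control agent.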

E. faecalis VRE 29 = experiment: MIC, broth microdilution, vancomycin-resistant E. faecalis VRE 29 (VanA); assay type: cell-based, Enterococcus faecalis; settings: for MIC: Enterococcus faecalis VRE 29 (vancomycin-resistant), read-out: MIC; for MIC-fold improvement vs. vancomycin: VRE 29, ratio of MIC of vancomycin and MIC of analogue
Summary of the method: as §1

[1] = system: Murine leukemia (L1210) cells; experiment: Cytostatic activity, L1210 cell proliferation; assay type: cell-based; settings: mean ± SD of three experiments; highest concentration tested 250 µM; 2 days; read-out: Toxicity (IC50) L1210
Summary of the method: (§2)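 Readout: Coulter cell number after drug exposure at 37°C. Durations differ by line (L1210 2 days; CEM 3 days; HeLa 4 days). Stock suspension 300,000–500,000 cells/mL, diluted by mixing with compound. Endpoint: IC50 vs negative control.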

S. aureus VISA/HIP5827 = experiment: MIC, broth microdilution, vancomycin-intermediate S. aureus VISA HIP5827; assay type: cell-based, Staphylococcus aureus; settings: for MIC: Staphylococcus aureus VISA/HIP5827, read-out: MIC; for MIC-fold improvement vs. vancomycin: VISA/HIP5827, ratio of MIC of vancomycin and MIC of analogue
Summary of the method: as §1

MRSA KS2 = experiment: MIC, broth microdilution, MRSA KS2; assay type: cell-based, Staphylococcus aureus; settings: for MIC-fold improvement vs. vancomycin: MRSA KS2, ratio of MIC of vancomycin and MIC of analogue; for MIC: Staphylococcus aureus MRSA KS2, read-out: MIC
Summary of the method: as §1

[2] = system: human cervix carcinoma (HeLa) cells; experiment: Cytostatic activity, HeLa cell proliferation; assay type: cell-based; settings: mean ± SD of three experiments; highest concentration tested 250 µM; 4 days; read-out: Toxicity (IC50) HeLa
Summary of the method: as §2

MRSA KS1 = experiment: MIC, broth microdilution, MRSA KS1; assay type: cell-based, Staphylococcus aureus; settings: for MIC-fold improvement vs. vancomycin: MRSA KS1, ratio of MIC of vancomycin and MIC of analogue; for MIC: Staphylococcus aureus MRSA KS1, read-out: MIC
Summary of the method: as §1

MRSA KS6 = experiment: MIC, broth microdilution, MRSA KS6; assay type: cell-based, Staphylococcus aureus; settings: for MIC-fold improvement vs. vancomycin: MRSA KS6, ratio of MIC of vancomycin and MIC of analogue; for MIC: Staphylococcus aureus MRSA KS6, read-out: MIC
Summary of the method: as §1

[3] = system: human T-lymphocyte (CEM) cells; experiment: Cytostatic activity, CEM cell proliferation; assay type: cell-based; settings: mean ± SD of three experiments; highest concentration tested 250 µM; 3 days; read-out: Toxicity (IC50) CEM
Summary of the method: as §2

E. faecalis VSE 1 = experiment: MIC, broth microdilution, vancomycin-sensitive E. faecalis (VSE 1); assay type: cell-based, Enterococcus faecalis; settings: for MIC: Enterococcus faecalis VSE 1 (vancomycin-sensitive), read-out: MIC; for MIC-fold improvement vs. vancomycin: VSE 1, ratio of MIC of vancomycin and MIC of analogue
Summary of the method: as §1

E. faecalis VRE 53 = experiment: MIC, broth microdilution, vancomycin-resistant E. faecalis VRE 53 (VanA); assay type: cell-based, Enterococcus faecalis; settings: for MIC: Enterococcus faecalis VRE 53 (vancomycin-resistant), read-out: MIC; for MIC-fold improvement vs. vancomycin: VRE 53, ratio of MIC of vancomycin and MIC of analogue
Summary of the method: as §1

MRSA KS89 = experiment: MIC, broth microdilution, MRSA KS89; assay type: cell-based, Staphylococcus aureus; settings: for MIC-fold improvement vs. vancomycin: MRSA KS8, ratio of MIC of vancomycin and MIC of analogue; for MIC: Staphylococcus aureus MRSA KS8, read-out: MIC
Summary of the method: as §1

[4] = system: L1210, CEM and HeLa cell lines; experiment: Cytostatic activity, average or summary over L1210, CEM and HeLa; assay type: cell-based; settings: average of L1210, CEM and HeLa; read-out: Toxicity (IC50) Average
Summary of the method: as §2

[5] = system: S. aureus VSSA (ATCC 6538); experiment: MIC, broth microdilution, vancomycin-sensitive S. aureus (VSSA/MSSA, ATCC 6538); assay type: cell-based, Staphylococcus aureus; settings: for MIC: Staphylococcus aureus VSSA, read-out: MIC; for MIC-fold improvement vs. vancomycin: VSSA, ratio of MIC of vancomycin and MIC of analogue
Summary of the method: as §1

S. aureus VRSA = experiment: MIC, broth microdilution, vancomycin-resistant S. aureus (VRSA); assay type: cell-based, Staphylococcus aureus; settings: for MIC: Staphylococcus aureus VRSA, read-out: MIC; for MIC-fold improvement vs. vancomycin: VRSA, ratio of MIC of vancomycin and MIC of analogue
Summary of the method: as §1

E. faecalis VRE 6 = experiment: MIC, broth microdilution, vancomycin-resistant E. faecalis VRE 6 (VanA); assay type: cell-based, Enterococcus faecalis; settings: for MIC: Enterococcus faecalis VRE 6 (vancomycin-resistant), read-out: MIC; for MIC-fold improvement vs. vancomycin: VRE 6, ratio of MIC of vancomycin and MIC of analogue
Summary of the method: as §1

MIC (E. faecalis VRE 37)	MIC-fold improvement vs. vancomycin (E. faecalis VRE 37)	MIC (E. faecalis VRE 29)	MIC-fold improvement vs. vancomycin (E. faecalis VRE 29)	MIC (S. aureus VISA/HIP5827)	MIC-fold improvement vs. vancomycin (S. aureus VISA/HIP5827)	MIC-fold improvement vs. vancomycin (MRSA KS2)	MIC (MRSA KS2)	MIC-fold improvement vs. vancomycin (MRSA KS1)	MIC (MRSA KS1)	MIC-fold improvement vs. vancomycin (MRSA KS6)	MIC (MRSA KS6)	MIC (E. faecalis VSE 1)	MIC-fold improvement vs. vancomycin (E. faecalis VSE 1)	MIC (E. faecalis VRE 53)	MIC-fold improvement vs. vancomycin (E. faecalis VRE 53)	MIC-fold improvement vs. vancomycin (MRSA KS89)	SMILES	IC50 [1]	IC50 [2]	IC50 [3]	other results
6.25 µM (≈ 10.3 µg/mL)	64	12.5 µM (≈ 20.6 µg/mL)	32	0.78 µM (≈ 1.29 µg/mL)	8	4	0.20 µM (≈ 0.33 µg/mL)	1	0.78 µM (≈ 1.29 µg/mL)	4	0.20 µM (≈ 0.33 µg/mL)	0.39 µM (≈ 0.644 µg/mL)	4	6.25 µM (≈ 10.3 µg/mL)	64	4	CCCCCc1ccc(NC(=O)CNC(=O)[C@H]2NC(=O)[C@H]3NC(=O)[C@H](NC(=O)[C@@H]4NC(=O)[C@H](CC(N)=O)NC(=O)[C@H](NC(=O)[C@@H](CC(C)C)NC)[C@H](O)c5ccc(c(Cl)c5)Oc5cc4cc(c5O[C@@H]4O[C@H](CO)[C@@H](O)[C@H](O)[C@H]4O[C@H]4C[C@](C)(N)[C@H](O)[C@H](C)O4)Oc4ccc(cc4Cl)[C@H]3O)c3ccc(O)c(c3)-c3c(O)cc(O)cc32)cc1 [Vanc-74]	≥ 250 µM	102 ± 46 µM	78 ± 20 µM	MIC (MRSA KS89): 0.20 µM (≈ 0.33 µg/mL); IC50 [4]: 143 µM; MIC [5]: 0.39 µM (≈ 0.644 µg/mL); MIC-fold improvement vs. vancomycin [5]: 2; MIC (S. aureus VRSA): 1.56 µM (≈ 2.58 µg/mL); MIC-fold improvement vs. vancomycin (S. aureus VRSA): 64; MIC (E. faecalis VRE 6): 1.56 µM (≈ 2.58 µg/mL); MIC-fold improvement vs. vancomycin (E. faecalis VRE 6): 128
3.13 µM (≈ 5.21 µg/mL)	128	3.13 µM (≈ 5.21 µg/mL)	128	0.78 µM (≈ 1.3 µg/mL)	8	4	0.20 µM (≈ 0.333 µg/mL)	4	0.20 µM (≈ 0.333 µg/mL)	2	0.39 µM (≈ 0.65 µg/mL)	0.78 µM (≈ 1.3 µg/mL)	2	3.13 µM (≈ 5.21 µg/mL)	128	4	CCCCCCc1ccc(NC(=O)CNC(=O)[C@H]2NC(=O)[C@H]3NC(=O)[C@H](NC(=O)[C@@H]4NC(=O)[C@H](CC(N)=O)NC(=O)[C@H](NC(=O)[C@@H](CC(C)C)NC)[C@H](O)c5ccc(c(Cl)c5)Oc5cc4cc(c5O[C@@H]4O[C@H](CO)[C@@H](O)[C@H](O)[C@H]4O[C@H]4C[C@](C)(N)[C@H](O)[C@H](C)O4)Oc4ccc(cc4Cl)[C@H]3O)c3ccc(O)c(c3)-c3c(O)cc(O)cc32)cc1 [Vanc-75]	17 ± 7 µM	83 ± 4 µM	15 ± 3 µM	MIC (MRSA KS89): 0.20 µM (≈ 0.333 µg/mL); IC50 [4]: 38 µM; MIC [5]: 0.78 µM (≈ 1.3 µg/mL); MIC-fold improvement vs. vancomycin [5]: 1; MIC (S. aureus VRSA): 1.56 µM (≈ 2.6 µg/mL); MIC-fold improvement vs. vancomycin (S. aureus VRSA): 64; MIC (E. faecalis VRE 6): 3.13 µM (≈ 5.21 µg/mL); MIC-fold improvement vs. vancomycin (E. faecalis VRE 6): 64
3.13 µM (≈ 5.44 µg/mL)	128	3.13 µM (≈ 5.44 µg/mL)	128	0.78 µM (≈ 1.36 µg/mL)	8	4	0.20 µM (≈ 0.348 µg/mL)	>8	<0.10 µM	4	0.20 µM (≈ 0.348 µg/mL)	0.78 µM (≈ 1.36 µg/mL)	2	3.13 µM (≈ 5.44 µg/mL)	128	4	CNC(CC(C)C)C(=O)NC1C(=O)NC(CC(N)=O)C(=O)NC2C(=O)NC3C(=O)NC(C(=O)NC(C(=O)NCC(=O)Nc4ccc(-c5cn(-c6ccc(C)cc6)nn5)cc4)c4cc(O)cc(O)c4-c4cc3ccc4O)C(O)c3ccc(c(Cl)c3)Oc3cc2cc(c3OC2OC(CO)C(O)C(O)C2OC2CC(C)(N)C(O)C(C)O2)Oc2ccc(cc2Cl)C1O (stereo not drawn) [Vanc-76]	11 ± 7 µM	17 ± 2 µM	3.2 ± 0.6 µM	MIC (MRSA KS89): 0.20 µM (≈ 0.348 µg/mL); IC50 [4]: 10 µM; MIC [5]: 0.39 µM (≈ 0.678 µg/mL); MIC-fold improvement vs. vancomycin [5]: 2; MIC (S. aureus VRSA): 0.78 µM (≈ 1.36 µg/mL); MIC-fold improvement vs. vancomycin (S. aureus VRSA): 128; MIC (E. faecalis VRE 6): 1.56 µM (≈ 2.71 µg/mL); MIC-fold improvement vs. vancomycin (E. faecalis VRE 6): 128
